pIC50: −log10 of the molar value. Like-named read-outs stand apart in the source and are kept apart here.
Experiments:
human HDAC1 complex = target: T1, human HDAC1 complex (Homo sapiens, UniProt Q13547); experiment: HDAC1-Flag in vitro deacetylation assay; assay type: biochemical
T1 construct: Flag; made in house
Description: Novel compounds were tested for their ability to inhibit histone deacetylase, subtype 1 (HDAC1) using an in vitro deacetylation assay. The enzyme source for this assay was an epitope-tagged human HDAC1 complex immuno-purified from stably expressing mammalian cells. The substrate consisted of a commercial product containing an acetylated lysine side chain (BIOMOL Research Laboratories, Inc., Plymouth Meeting, Pa.). Upon deacetylation of the substrate by incubation with the purified HDAC1 complex, a fluorophore is produced that is directly proportional to the level of deacetylation. Using a substrate concentration at the Km for the enzyme preparation, the deacetylation assay was performed in the presence of increasing concentrations of novel compounds to semi-quantitatively determine the concentration of compound required for 50% inhibition (IC50) of the deacetylation reaction.

HCT-116 cells = experiment: ATP (Vialight) cell proliferation assay, HCT-116; assay type: cell-based; settings: Homo sapiens
Description: (§1) The novel compounds of the present invention were tested for their ability to inhibit proliferation of the human cervical cancer (HeLa) and colon carcinoma (HCT116) cells.
(§2) In this assay, also referred to as the Vialight Assay, cellular ATP levels are measured as a means of quantifying cellular proliferation. This assay makes use of a bioluminescent method from Cambrex (ViaLight PLUS, cat. #LT07-121). In the presence of ATP, luciferase converts luciferin to oxyluciferin and light. The amount of light produced (emission at 565 nm) is measured and correlates with a relative amount of proliferation. Human cervical cancer (HeLa) or colon carcinoma (HCT116) cells were incubated with vehicle or increasing concentrations of compound for 48, 72 or 96 hours. Cell proliferation was quantified by adding the cell lysis reagent (provided in the Vialight assay kit) directly to culture wells, followed by addition of the ATP-monitoring reagent (containing luciferase/luciferin). The amount of light produced is then measured (emission at 565 nm). The quantity of light produced, as measured by […], is directly proportional to the number of living cells in culture.

Cyp 2D6 = Cyp 2D6 (Homo sapiens, UniProt P10635); experiment: Cyp inhibition, Cyp2D6; assay type: in vitro ADME; settings: read-out: Percent Cyp inhibition, 2D6
MK-499 binding = MK-499 binding (Homo sapiens, UniProt Q12809); experiment: MK-499 binding; settings: read-out: inflection point for MK-499 binding
Cyp3A4 = Cyp3A4 (Homo sapiens, UniProt P08684); experiment: Cyp inhibition, Cyp3A4; assay type: in vitro ADME; settings: read-out: Percent Cyp inhibition, Cyp3A4
Cyp 2C9 = Cyp 2C9 (Homo sapiens, UniProt P11712); experiment: Cyp inhibition, Cyp2C9; assay type: in vitro ADME; settings: read-out: Percent Cyp inhibition, 2C9
[1] = system: human cervical cancer (HeLa) or colon carcinoma (HCT116) cells; experiment: Prol-72 hr, ATP (Vialight) proliferation assay, cell line not given; assay type: cell-based; settings: Table 2, IP = inflection point, cell line not stated
Description: as §1, §2

[2] = Table 2, IP = inflection point, read-out: HDAC1 IP*
[3] = Table 3, IP = inflection point, read-out: HDAC 1 IP*

Cyp 2D6, sequence (P10635 whole entry): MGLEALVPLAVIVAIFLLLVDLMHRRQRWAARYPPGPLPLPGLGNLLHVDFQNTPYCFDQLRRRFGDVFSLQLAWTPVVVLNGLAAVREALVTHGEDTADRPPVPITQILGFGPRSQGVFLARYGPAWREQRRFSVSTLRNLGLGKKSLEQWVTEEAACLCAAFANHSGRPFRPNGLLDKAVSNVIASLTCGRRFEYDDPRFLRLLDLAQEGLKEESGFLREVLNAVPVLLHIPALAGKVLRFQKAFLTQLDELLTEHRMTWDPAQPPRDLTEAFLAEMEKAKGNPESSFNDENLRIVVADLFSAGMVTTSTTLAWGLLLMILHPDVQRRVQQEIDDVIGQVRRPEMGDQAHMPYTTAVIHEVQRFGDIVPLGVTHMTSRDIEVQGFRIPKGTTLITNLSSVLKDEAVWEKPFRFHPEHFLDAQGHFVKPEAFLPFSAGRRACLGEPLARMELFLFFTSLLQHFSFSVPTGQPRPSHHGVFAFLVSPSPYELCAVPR
Cyp 2C9, sequence (P11712 whole entry): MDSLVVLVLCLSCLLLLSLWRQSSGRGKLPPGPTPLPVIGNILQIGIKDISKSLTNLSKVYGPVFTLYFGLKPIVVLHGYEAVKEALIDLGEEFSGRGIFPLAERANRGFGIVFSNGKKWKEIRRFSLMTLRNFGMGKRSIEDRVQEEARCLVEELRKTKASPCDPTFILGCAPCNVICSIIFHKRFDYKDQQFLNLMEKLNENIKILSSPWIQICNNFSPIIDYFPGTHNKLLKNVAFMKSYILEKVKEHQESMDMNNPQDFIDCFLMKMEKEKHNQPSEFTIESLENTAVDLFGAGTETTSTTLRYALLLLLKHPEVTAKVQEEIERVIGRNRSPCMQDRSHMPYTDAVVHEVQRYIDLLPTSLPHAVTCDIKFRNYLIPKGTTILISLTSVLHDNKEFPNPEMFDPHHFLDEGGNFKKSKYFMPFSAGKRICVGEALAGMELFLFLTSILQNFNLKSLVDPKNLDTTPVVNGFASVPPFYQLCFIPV
T1 sequence (Q13547 whole entry, one chain of several): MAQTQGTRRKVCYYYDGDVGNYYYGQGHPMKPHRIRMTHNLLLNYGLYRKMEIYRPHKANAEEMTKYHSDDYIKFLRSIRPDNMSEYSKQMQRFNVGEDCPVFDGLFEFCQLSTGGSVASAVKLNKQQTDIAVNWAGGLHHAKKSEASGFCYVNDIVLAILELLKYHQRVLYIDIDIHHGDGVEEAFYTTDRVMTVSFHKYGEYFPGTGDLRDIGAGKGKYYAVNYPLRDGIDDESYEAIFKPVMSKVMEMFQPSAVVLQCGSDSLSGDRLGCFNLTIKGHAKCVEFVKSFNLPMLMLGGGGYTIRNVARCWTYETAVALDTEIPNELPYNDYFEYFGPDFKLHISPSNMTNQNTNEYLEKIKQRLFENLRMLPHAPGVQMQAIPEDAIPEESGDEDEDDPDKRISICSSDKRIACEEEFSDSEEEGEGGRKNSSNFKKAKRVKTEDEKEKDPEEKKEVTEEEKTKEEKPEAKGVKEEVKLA
MK-499 binding, sequence (Q12809 whole entry): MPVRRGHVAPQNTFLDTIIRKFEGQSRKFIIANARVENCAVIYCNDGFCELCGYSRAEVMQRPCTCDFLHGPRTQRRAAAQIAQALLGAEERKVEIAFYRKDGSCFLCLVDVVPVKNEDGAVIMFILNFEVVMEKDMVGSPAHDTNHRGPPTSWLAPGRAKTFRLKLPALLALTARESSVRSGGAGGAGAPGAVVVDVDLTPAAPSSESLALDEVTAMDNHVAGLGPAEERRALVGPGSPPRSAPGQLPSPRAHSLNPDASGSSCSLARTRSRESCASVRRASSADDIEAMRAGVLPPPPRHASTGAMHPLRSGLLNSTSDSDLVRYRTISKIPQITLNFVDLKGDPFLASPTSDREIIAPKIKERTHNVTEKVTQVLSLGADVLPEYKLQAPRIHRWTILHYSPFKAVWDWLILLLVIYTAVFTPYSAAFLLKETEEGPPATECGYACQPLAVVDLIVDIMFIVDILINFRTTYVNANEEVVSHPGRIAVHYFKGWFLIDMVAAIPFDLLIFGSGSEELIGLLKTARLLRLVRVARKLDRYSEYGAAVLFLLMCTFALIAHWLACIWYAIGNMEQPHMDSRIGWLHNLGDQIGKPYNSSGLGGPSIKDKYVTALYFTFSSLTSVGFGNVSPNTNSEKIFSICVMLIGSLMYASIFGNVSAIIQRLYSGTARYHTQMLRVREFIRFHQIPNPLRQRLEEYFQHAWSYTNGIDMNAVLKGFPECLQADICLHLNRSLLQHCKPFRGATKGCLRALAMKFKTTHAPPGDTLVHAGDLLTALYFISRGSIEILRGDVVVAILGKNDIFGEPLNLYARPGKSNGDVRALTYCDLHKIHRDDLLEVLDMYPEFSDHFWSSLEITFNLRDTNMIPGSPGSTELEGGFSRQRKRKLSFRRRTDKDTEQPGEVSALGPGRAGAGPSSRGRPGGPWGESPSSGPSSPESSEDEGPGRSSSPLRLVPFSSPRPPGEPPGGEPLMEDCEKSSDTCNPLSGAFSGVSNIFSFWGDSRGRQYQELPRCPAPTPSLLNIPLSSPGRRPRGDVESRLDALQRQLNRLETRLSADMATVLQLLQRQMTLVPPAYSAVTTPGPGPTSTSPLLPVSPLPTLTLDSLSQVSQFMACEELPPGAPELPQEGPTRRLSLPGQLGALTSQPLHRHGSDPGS
Cyp3A4, sequence (P08684 whole entry, species assumed): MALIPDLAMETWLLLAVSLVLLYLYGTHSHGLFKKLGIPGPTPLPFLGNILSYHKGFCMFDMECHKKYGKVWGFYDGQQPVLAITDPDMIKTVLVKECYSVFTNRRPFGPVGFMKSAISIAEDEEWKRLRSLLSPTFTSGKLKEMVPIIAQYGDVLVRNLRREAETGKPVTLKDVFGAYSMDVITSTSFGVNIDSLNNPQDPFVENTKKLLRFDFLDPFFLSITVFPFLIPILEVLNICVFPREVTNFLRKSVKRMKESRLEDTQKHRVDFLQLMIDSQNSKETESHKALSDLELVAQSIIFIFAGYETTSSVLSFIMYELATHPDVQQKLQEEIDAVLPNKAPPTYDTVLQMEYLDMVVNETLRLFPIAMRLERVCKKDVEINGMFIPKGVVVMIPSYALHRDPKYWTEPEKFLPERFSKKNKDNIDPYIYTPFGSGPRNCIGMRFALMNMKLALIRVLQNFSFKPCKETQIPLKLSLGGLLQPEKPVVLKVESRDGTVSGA

Structure (SMILES)	pIC50 (human HDAC1 complex; read-out: in vitro HDAC1 IC50)	pIC50 (HCT-116 cells)	inhibition at 10 µM (Cyp 2D6) [%]	pIC50 (MK-499 binding)	inhibition at 10 µM (Cyp3A4) [%]	inhibition at 10 µM (Cyp 2C9) [%]	pIC50 (human HDAC1 complex; [2])	pIC50 [1]	pIC50 (human HDAC1 complex; [3])
Nc1ccc(-c2ccccc2)nc1NC(=O)c1ccc(CNC(=O)OCc2cccnc2)cc1 [Pyridin-3-ylmethyl[(4-{[(3-amino-6-phenylpyridin-2-yl)amino]carbonyl}phenyl)methyl]carbamate]	7.08	6.24	55	< 4.52	46	54			
Nc1ccc(-c2ccccc2)nc1NC(=O)c1ccccc1 [N-(3-amino-6-phenylpyridin-2-yl)benzamide]							5.94		
COC(=O)NCc1ccc(C(=O)Nc2nc(-c3ccccc3)ccc2N)cc1 [Methyl(4-{[(3-amino-6-phenylpyridin-2-yl)amino]carbonyl}benzyl)carbamate]	7.43	5.92	27	< 5.00	29	49			
COC(=O)c1ccc(C(=O)Nc2nc(-c3ccccc3)ccc2N)cc1 [benzoic acid, methyl 4-[[(3-amino-6-phenyl-2-pyridinyl)amino]carbonyl]benzoate]							6.71	4.70	
Nc1ccc(-c2ccccc2)nc1NC(=O)c1ccc(CNC(=O)OCc2ccccc2)cc1 [Benzyl(4-{[(3-amino-6-phenylpyridin-2-yl)amino]carbonyl}benzyl)carbamate]	7.49	6.23	24	4.91	7	25			
Nc1ccc(-c2ccccc2)nc1NC(=O)c1ccc(CNC(=O)Oc2ccccc2)cc1 [phenyl (4-{[(3-amino-6-phenylpyridin-2-yl)amino]carbonyl}benzyl)carbamate]									7.92
CC(=O)Nc1ccc(C(=O)Nc2nc(-c3ccccc3)ccc2N)cc1 [4-(Acetylamino)-N-(3-amino-6-phenylpyridin-2-yl)benzamide]	7.07	5.69							
Nc1ccc(-c2ccccc2)nc1NC(=O)c1ccc(CNC(=O)OCc2ccccn2)cc1 [Pyridin-2-ylmethyl(4-{[(3-amino-6-phenylpyridin-2-yl)amino]carbonyl}benzyl)carbamate]	7.46	6.25	24	2.60	27	47			
Nc1ccc(-c2cccs2)nc1NC(=O)c1ccc(CNC(=O)OCc2cccnc2)cc1 [pyridin-3-ylmethyl {[4-({[3-amino-6-(2-thienyl)pyridin-2-yl]amino}carbonyl)phenyl]methyl}carbamate]	7.25	6.25							
CC(C)(C)c1ccc(C(=O)Nc2nc(-c3ccccc3)ccc2N)cc1 [N-(3-amino-6-phenyl-2-pyridinyl)-4-(1,1-dimethylethyl) benzamide]							6.63	4.70	
CCOC(=O)NCc1ccc(C(=O)Nc2nc(-c3ccccc3)ccc2N)cc1 [ethyl (4-{[(3-amino-6-phenylpyridin-2-yl)amino]carbonyl}benzyl)carbamate]									7.96
